Source: article PMC12013143, “Ionic liquid-iontophoresis mediates transdermal delivery of sparingly soluble drugs” (Drug Delivery, 2025)
≈ marks a conversion by molar mass, not a printed value. Where “and” joins values, the source holds several entries; their conditions need not be identical. Equal entries are not always repeated.

Legend:
physchem = details: Solubilities
[1] = In vitro skin permeation/retention with IL alone, horizontal diffusion cells; assay type: in vitro ADME; details: excised rat skin; for Permeation/retention enhancement effect on apremilast: 20% IL (label = IL); for Effect on promoting permeation/retention of indomethacin: 20% IL or 1%SDS (label = vehicle)
Protocol: (§1) Anesthetize rats by intraperitoneal injection with a dose of 1.0 g/kg urethane solution. Then remove the back hair using a pet shaver. Carefully remove the muscle tissue from the inner side of the skin with a surgical knife, cut it into small pieces, soak it in physiological saline for 30 min, cover the diffusion cell opening, and secure it with a clip. Intact rat skin was positioned between two cells, with the SC facing the donor compartment. The drugs were precisely measured at a weight of 4.00 mg each and subsequently dissolved in 4 mL of ILs or other control solutions, and added in donor compartment. The 0.01 M PBS (pH 6.8, 4.0 mL) was chosen as receptor medium. Sampling of ILs was conducted at various time points, specifically at 0, 4, 6, 8, 10, and 24 h. Following each sampling, 2.0 mL (all receptor medium was removed at the 10-h time point) of receptor medium was replaced with fresh PBS solution. The transdermal penetration of IS or IL-IS was conducted using an electroosmosis apparatus (Dajia DL-Z, China) to ensure a consistent current intensity of 0–0.5 mA. […] A receiving solution (2.0 mL) was collected at 1, 2, 4, 6, 8, and 10 h. After skin permeation experiments, rat skins were subsequently removed from cells, cut into pieces, and immersed in methanol for 12 h. The samples were then diluted with mobile phase at a ratio of 1:10. Following centrifugation for 10 min at 9000 rpm, the resulting supernatants were analyzed using HPLC, as previously described.
(§2) The drug skin permeation amount of solution system was calculated through concentration and volume of each sampling point: Q=[Cn×Vo+∑i=1n−1Ci×V]/S
(§3) In this experiment, Vo: 4.0 mL; V: 2.0 mL (24 h point: 4 mL); S: 0.74 cm^2.
(§4) The drug skin retention amount was calculated as follows: R=M/S

[2] = In vitro skin permeation/retention with iontophoresis (IS) or IL-IS, horizontal diffusion cells; assay type: in vitro ADME, rat; details: for Effect of current intensity on retention amount / Effect of current intensity on transdermal permeation / Permeation applying IL-IS relative to IL alone / Retention in negative current relative to positive current / Permeation in negative current relative to positive current / Increase of transdermal permeation by IL-IS / Increase of transdermal permeation by IL / Permeation applying IL-IS relative to IS alone: 20% [Cho] [Cin]; for Effect of current intensity on retention amount / Effect of current intensity on transdermal permeation: negative current 0.1–0.3 mA; for Retention in negative current relative to positive current / Permeation in negative current relative to positive current: 0.3 mA; for Permeation in negative current relative to positive current / Increase of transdermal permeation by IL-IS / Increase of transdermal permeation by IL / Increase of transdermal permeation by IS: 10 h cumulative penetration; for Increase of transdermal permeation by IL: no current; for Increase of transdermal permeation by IS: no IL
Protocol: as §1, §2, §3, §4

HaCaT cells = test: Cytotoxicity of ILs, CCK-8 assay; assay type: cell-based, human; details: 24 h incubation
Protocol: The cytotoxicity of ILs to HaCaT cells was assessed using the Cell Counting Kit 8 (CCK-8) assay. The cell suspension (100 µL) was transferred to a 96-well plate at 8 × 10^3 cells/mL. Then, the 96-well plate was placed in a cell incubator. After 24 h, the medium was removed, and the cells were washed with phosphate-buffered saline (PBS, pH 7.4, 0.1 M). Then, ILs at different concentrations was added to each well for stimulation. After incubation for 24 h, CCK-8 solution (10 µL) was added to each well, followed by incubation for 2 h. The absorbance was measured at 450 nm using a microplate reader (SpectraMax iD5, Molecular Devices, America), and the cell viability was calculated.

[3] = General properties of ILs diluted to 20% (w/w) with water: pH, electrical conductivity, viscosity; assay type: physicochemical; details: 20%IL in water
Protocol: Viscosity was determined using a viscometer (DV2T, Brookfield, America).

rat skin = test: CLSM of rhodamine B penetration into rat skin in vivo, with or without endocytosis inhibitors; details: for Fluorescence intensity after treatment with endocytosis inhibitors: nystatin, indomethacin, chlorpromazine applied 1 h before
[4] = pH 4.5, aqueous buffer, thermodynamic from solid
[5] = pH 6.8, aqueous buffer, thermodynamic from solid
[6] = pH 9, aqueous buffer, thermodynamic from solid
[7] = water, thermodynamic from solid
[8] = 20% IL (label = IL), negative current 0.3 mA, 10 h
[9] = aripiprazole in 20% IL (label = IL)

SMILES	solubility (physchem; [4]) [mg/mL]	solubility (physchem; [5]) [mg/mL]	solubility (physchem; [6]) [mg/mL]	solubility (physchem; [7]) [mg/mL]	Cumulative permeation after 24 h ([1]; drug in water)	Skin retention amount after 24 h ([1]; drug in water) [µg/cm^2]	Effect of current intensity on retention amount ([2]; 10 h)	Effect of current intensity on transdermal permeation ([2]; 10 h)	Permeation applying IL-IS relative to IL alone ([2]; negative current 0.3 mA, 10 h)	Increase of transdermal permeation by IL-IS ([2]; negative current 0.3 mA)	Increase of transdermal permeation by IL [2]	Increase of transdermal permeation by IS ([2]; negative current 0.3 mA)	Electric conductivity [3] [ms/cm]	Viscosity [3] [mPa·s]	also measured
O=C1CCc2ccc(OCCCCN3CCN(c4cccc(Cl)c4Cl)CC3)cc2N1 [aripiprazole]	0.152 ± 0.0163 (≈ 338 µM)	0.0085 ± 0.0032 (≈ 19 µM)	0.00079 ± 0.0005 (≈ 1.76 µM)	0.00094 ± 0.00015 (≈ 2.1 µM)	negligible	1.1	did not result in a significant difference	positive linear correlation	about 14 fold	14 fold	little effect	little effect			Cumulative permeation after 24 h ([1]; drug in 1% SDS): 0.35 µg/cm^2; Skin retention amount after 24 h ([1]; drug in 1% SDS): 2.6 µg/cm^2; Retention in negative current relative to positive current ([2]; 10 h): ~3.0 fold; Permeation in negative current relative to positive current [2]: ~5.0 fold; Transdermal penetration versus [Cho] [Cin] concentration under IL-IS ([2]; [Cho] [Cin] 0–20%, negative current 0.3 mA, 10 h): increase with the rise in the concentration; Permeation at different pH values ([2]; pH 4.5, pH 6.8 and pH 9.0, 10 h, IS-related factors): no significant change
COc1ccc2c(c1)c(CC(=O)O)c(C)n2C(=O)c1ccc(Cl)cc1 [indomethacin]	2.63 ± 0.648 (≈ 7350 µM)	0.0215 ± 0.0057 (≈ 60.1 µM)	2.23 ± 0.136 (≈ 6230 µM)	0.0285 ± 0.0007 (≈ 79.7 µM)	10.06 µg/cm^2	6.1	did not result in a significant difference	not significantly enhanced		little effect	3.3 fold	1.6 fold			
CC(=O)[O-].C[N+](C)(C)CCO [[Cho] [Ace]]													32.12 ± 0.03	1.69 ± 0.08	Permeation/retention enhancement effect on apremilast ([1]; 24 h): did not have significant permeation/retention enhancement effects; 24 h cumulative permeability of indomethacin relative to water ([1]; indomethacin in 20% IL (label = IL)): 4.8 times; Cytotoxicity of ILs, descending order (from LD 50) (HaCaT cells): [Cho] [Ole] > [Cho] [Cin] > [Cho] [Ger] > [Cho] [Ace] > [Cho] [Tar]; pH [3]: 9.37 and 9.37 ± 0.01; Permeation enhancement effect on aripiprazole when IL-IS applied [2, 8]: did not have significant permeation enhancement effects
COc1cc2nc(N3CCN(C(=O)C4CCCO4)CC3)nc(N)c2cc1OC (stereo not drawn) [terazosin]									~2.6 fold						Permeation applying IL-IS relative to IS alone ([2]; negative current 0.3 mA, 10 h): ~5.2 fold
CCN(CC)c1ccc2c(-c3ccccc3C(=O)O)c3ccc(=[N+](CC)CC)cc-3oc2c1 [rhodamine B]															Fluorescence intensity after treatment with endocytosis inhibitors (rat skin; IL, IS and IL-IS groups): partially suppressed; Fluorescence intensity after treatment with endocytosis inhibitors (rat skin; control gel group): no substantial alteration; Transmission pathway in skin (overlap with DAPI) (rat skin; rat skin in vivo, 10 h): primarily occurred through accessory organs; CLSM fluorescence intensity and depth in skin, order of treatments (rat skin; rat skin in vivo, 10 h, control gel, IL gel, IS, IL-IS): IL-IS > IS > IL > Control
C[N+](C)(C)CCO.O=C([O-])/C=C/c1ccccc1 [[Cho] [Cin]]													18.60 ± 0.06	1.97 ± 0.04	Permeation of aripiprazole after 24 h, in words [1, 9]: did not show a significant difference; Skin retention of aripiprazole after 24 h, in words [1, 9]: surpassed that of other ILs; pH [3]: 8.27 and 8.27 ± 0.01; Increase of 10 h cumulative permeation of aripiprazole with IL-IS compared to IL or IS alone ([2]; 20% IL (label = IL), negative current 0.3 mA): 14 fold
CCCCCCCCCCCCOS(=O)(=O)[O-].[Na+] [1%SDS, sodium dodecyl sulfate]															Effect on promoting permeation/retention of indomethacin ([1]; 24 h): no significant effect
CN(Cc1ccc(C(C)(C)C)cc1)Cc1cccc2ccccc12 [butenafine]									~16.5 fold						Permeation applying IL-IS relative to IS alone ([2]; negative current 0.3 mA, 10 h): ~11.0 fold
CCOc1cc([C@@H](CS(C)(=O)=O)N2C(=O)c3cccc(NC(C)=O)c3C2=O)ccc1OC [apremilast]	0.0183 ± 0.0072 (≈ 39.7 µM)	0.0135 ± 0.0005 (≈ 29.3 µM)	0.0068 ± 0.001 (≈ 14.8 µM)	0.0218 ± 0.0038 (≈ 47.3 µM)	8.1 µg/cm^2	6.1	did not result in a significant difference	not significantly enhanced		16 fold	31 fold	little effect			solubility (physchem): 0.0218 ± 0.0038 mg/mL (≈ 47.3 µM); Transdermal permeation versus [Cho] [Cin] concentration ([1]; IL alone, 24 h): linear correlation; Skin retention amount versus [Cho] [Cin] concentration ([1]; [Cho] [Cin] 0–20%, IL alone): no significant change; Retention in negative current relative to positive current ([2]; 10 h): ~3.4 fold; Permeation in negative current relative to positive current [2]: about 3.2 fold
C[N+](C)(C)CCO.O=C([O-])C(O)C(O)C(=O)O (stereo not drawn) [[Cho] [Tar]]													28.74 ± 0.01	1.48 ± 0.01	Permeation/retention enhancement effect on apremilast ([1]; 24 h): did not have significant permeation/retention enhancement effects; Effect on promoting permeation/retention of indomethacin ([1]; 24 h): no significant effect; Permeation enhancement effect on aripiprazole when IL-IS applied [2, 8]: did not have significant permeation enhancement effects
